Molecules are shown by their SMILES. Counter-ions that a name gives are not always drawn. Bounds are passed on as bounds.

We go through 36 compounds from patent US20240383908A1, “SYNTHESIS AND APPLICATION OF PHOSPHATASE DEGRADER” (HINOVA PHARMACEUTICALS INC., priority 2021, published 2024).

This assay has as its target T1, SHP2 protein (Homo sapiens, UniProt Q06124).
T1 sequence (Q06124 1-593): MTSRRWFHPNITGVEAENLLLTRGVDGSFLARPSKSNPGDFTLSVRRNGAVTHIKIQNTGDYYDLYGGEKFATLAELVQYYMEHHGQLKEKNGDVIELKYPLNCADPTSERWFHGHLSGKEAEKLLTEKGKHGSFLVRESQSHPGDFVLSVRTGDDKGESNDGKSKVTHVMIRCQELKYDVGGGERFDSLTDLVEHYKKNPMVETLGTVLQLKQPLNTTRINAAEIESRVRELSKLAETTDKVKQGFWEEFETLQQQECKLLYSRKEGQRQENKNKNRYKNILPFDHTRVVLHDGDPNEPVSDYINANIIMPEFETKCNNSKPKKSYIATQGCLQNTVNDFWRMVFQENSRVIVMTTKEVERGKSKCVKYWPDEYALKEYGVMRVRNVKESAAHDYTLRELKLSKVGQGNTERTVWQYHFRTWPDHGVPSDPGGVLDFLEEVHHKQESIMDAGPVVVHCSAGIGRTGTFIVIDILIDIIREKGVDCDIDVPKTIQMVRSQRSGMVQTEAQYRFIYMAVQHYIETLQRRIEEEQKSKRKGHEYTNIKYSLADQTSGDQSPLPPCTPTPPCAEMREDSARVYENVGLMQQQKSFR
As to the kind of experiment: Degradation activity on SHP2 protein in MIA Paca-2 cells (Western blot, DC50). On the set-up: endogenous in cells; host or cells: MIA Paca-2 cells. The settings on record: read-out: Degradation activity for differenct cell lines MIA Paca-2 (DC50). Format: cell-based. Summed up: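 DC50 is the concentration degrading 50% of SHP2 relative to DMSO control. It was derived by fitting Western blot band densitometry (anti-SHP2, GAPDH reference) from cells exposed 24 h to 0.1–100 nM compound in 0.1% DMSO.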
Background: A western blot detects proteins with antibodies after separation by electrophoresis.

As to `C[C@@H]1OCC2(CCN(c3cnc(Sc4cccc(NC(=O)CCN5CC=C(c6ccc(C(=O)N7CCN(c8ccc9c(c8)CN(C8CCC(=O)NC8=O)C9=O)CC7)nc6)C(C)(C)C5)c4)cn3)CC2)[C@@H]1N` (stereo partly drawn) [Compound 276], the DC50 was > 1000 nM. On to `CC1(N)CCN(c2cnc(Sc3cccc(NC(=O)c4ccc(N5CCC(N6CCN(c7nnc(C(=O)NCc8ccc9c(c8)CN(C8CCC(=O)NC8=O)C9=O)cc7Cl)CC6)CC5)c(F)c4)c3)cn2)CC1` (stereo not drawn) [Compound 493], for which the DC50 is < 100 nM. `CC1(N)CCN(c2cnc(Sc3cccc(NC(=O)c4ccc(N5CCC(N6CC=C(c7ccc(C(=O)NCc8ccc9c(c8)CN(C8CCC(=O)NC8=O)C9=O)nc7)CC6)CC5)c(F)c4)c3)cn2)CC1` (stereo not drawn) [Compound 295, hydrochloride]: the DC50 is < 100 nM. Consider `CC1(N)CCN(c2cnc(Sc3cccc(NC(=O)c4ccc(N5CCC(N6CC=C(c7ccc(C(=O)NCc8ccc9c(c8)CN(C8CCC(=O)NC8=O)C9=O)nn7)CC6)C5)cc4)c3)cn2)CC1` (stereo not drawn) [Compound 402], for which the DC50 is < 100 nM. Take `C[C@@H]1OCC2(CCN(c3cnc(Sc4cccc(NC(=O)c5ccc(N6CCC(N7CC=C(c8ccc(C(=O)NCc9ccc%10c(c9)CN(C9CCC(=O)NC9=O)C%10=O)cc8Cl)CC7)CC6)c(F)c5)c4)cn3)CC2)[C@@H]1N` (stereo partly drawn) [Compound 459]: the DC50 was < 100 nM. Turning to `CC1(N)CCN(c2cnc(Sc3cccc(NC(=O)c4cc(N5CCC(N6CC=C(c7ccc(C(=O)NCc8ccc9c(c8)CN(C8CCC(=O)NC8=O)C9=O)nn7)CC6)CC5)cs4)c3)cn2)CC1` (stereo not drawn) [Compound 404], the DC50 was > 1000 nM.

`NC1(CO)CCN(c2cnc(Sc3cccc(NC(=O)c4ccc(N5CCC(N6CC=C(c7ccc(C(=O)NCc8ccc9c(c8)CN(C8CCC(=O)NC8=O)C9=O)nc7)CC6)CC5)cc4)c3)cn2)CC1` (stereo not drawn) [Compound 336]: the DC50 is < 100 nM.

For the compound `Cc1cc(C2=CCN(C3CCN(c4ccc(C(=O)Nc5cccc(Sc6cnc(N7CCC8(CC7)CO[C@@H](C)[C@H]8N)cn6)c5)cc4F)CC3)CC2)cnc1C(=O)NCc1ccc2c(c1)CN(C1CCC(=O)NC1=O)C2=O` (stereo partly drawn) [Compound 462], the DC50 was > 1000 nM. Consider `C[C@@H]1OCC2(CCN(c3cnc(Sc4cccc(NC(=O)c5ccc(N6CCC(N7CCC(c8ccc(C(=O)NCc9ccc%10c(c9)CN(C9CCC(=O)NC9=O)C%10=O)cc8)C(F)C7)CC6)c(F)c5)c4)cn3)CC2)[C@@H]1N` (stereo partly drawn) [Compound 510], for which the DC50 was < 100 nM. Regarding `C[C@@H]1OCC2(CCN(c3cnc(Sc4cccc(NC(=O)C5CCC(N6CC=C(c7ccc(C(=O)NCc8ccc9c(c8)CN(C8CCC(=O)NC8=O)C9=O)nc7)CC6)CC5)c4)cn3)CC2)[C@@H]1N` (stereo partly drawn) [Compound 474], the DC50 is < 100 nM.

For the compound `CC1(N)CCN(c2cnc(Sc3cccc(NC(=O)C4CC(N5CCC(N6CC=C(c7ccc(C(=O)NCc8ccc9c(c8)CN(C8CCC(=O)NC8=O)C9=O)nn7)CC6)CC5)C4)c3)cn2)CC1` (stereo not drawn) [Compound 296], the DC50 is < 100 nM. Consider `CC1(N)CCN(c2cnc(Sc3cccc(NC(=O)c4cccc(CN5CCN(c6ccc7c(c6)CN(C6CCC(=O)NC6=O)C7=O)CC5)c4)c3)cn2)CC1` (stereo not drawn) [Compound 298], for which the DC50 is > 1000 nM.

In the case of `CC1(N)CCN(c2cnc(Sc3cccc(NC(=O)C4CC45CCC(N4CC=C(c6ccc(C(=O)NCc7ccc8c(c7)CN(C7CCC(=O)NC7=O)C8=O)nc6)CC4)CC5)c3)cn2)CC1` (single isomer, unassigned) [Compound 315], the DC50 is > 1000 nM. For `CC1(N)CCN(c2cnc(Sc3cccc(NC(=O)c4ccc(N5CCC(N6CC=C(c7ccc(C(=O)NCc8ccc9c(c8)CN(C8CCC(=O)NC8=O)C9=O)nc7)C(C)(C)C6)CC5)cc4)c3)cn2)CC1` (stereo not drawn) [Compound 303], the DC50 is < 100 nM. Consider `CC1(N)CCN(c2cnc(Sc3cccc(NC(=O)c4ccc(N5CCC(N6CCN(c7cnc(C(=O)NCc8ccc9c(c8)CN(C8CCC(=O)NC8=O)C9=O)cc7Cl)CC6)CC5)nc4)c3)cn2)CC1` (stereo not drawn) [Compound 484], for which the DC50 was < 100 nM. To `C[C@@H]1OCC2(CCN(c3cnc(Sc4cccc(NC(=O)c5ccc(N6CCN(c7ccc(C(=O)NCc8ccc9c(c8)C(=O)N(C8CCC(=O)NC8=O)C9)nn7)CC6)c(F)c5)c4)cn3)CC2)[C@@H]1N` (stereo partly drawn) [Compound 261] belongs < 100 nM. Regarding `CC1(N)CCN(c2cnc(Sc3cccc(NC(=O)C4CC45CCC(N4CC=C(c6ccc(C(=O)NCc7ccc8c(c7)CN(C7CCC(=O)NC7=O)C8=O)nn6)CC4)CC5)c3)cn2)CC1` (single isomer, unassigned) [Compound 319], the DC50 is > 1000 nM. Consider `CC1(N)CCN(c2cnc(Sc3cccc(NC(=O)c4cc(F)c(N5CCC(N6CC=C(c7ccc(C(=O)NCc8ccc9c(c8)CN(C8CCC(=O)NC8=O)C9=O)nc7)CC6)CC5)c(F)c4)c3)cn2)CC1` (stereo not drawn) [Compound 471], for which the DC50 was 100 to 1000 nM. To `CC1(N)CCN(c2cnc(Sc3cccc(NCc4ccc(CN5CCN(c6ccc7c(c6)CN(C6CCC(=O)NC6=O)C7=O)CC5)cc4)c3)cn2)CC1` (stereo not drawn) [Compound 254] belongs > 1000 nM. To `CC1(N)CCN(c2cnc(Sc3cccc(NC(=O)c4ccc(N5CCC(N6CCN(c7ccc(C(=O)NCc8ccc9c(c8)CN(C8CCC(=O)NC8=O)C9=O)nc7)CC6)CC5)cc4F)c3)cn2)CC1` (stereo not drawn) [Compound 392] belongs < 100 nM; to `Cc1cc(C(=O)Nc2cccc(Sc3cnc(N4CCC(C)(N)CC4)cn3)c2)ccc1N1CCC(N2CCN(c3cnc(C(=O)NCc4ccc5c(c4)CN(C4CCC(=O)NC4=O)C5=O)cc3Cl)CC2)CC1` (stereo not drawn) [Compound 495], < 100 nM.

Take `Cc1cc(C(=O)NCc2ccc3c(c2)CN(C2CCC(=O)NC2=O)C3=O)ncc1C1=CCN(C2CCN(c3ccc(C(=O)Nc4cccc(Sc5cnc(N6CCC7(CC6)CO[C@@H](C)[C@H]7N)cn5)c4)cc3F)CC2)CC1` (stereo partly drawn) [Compound 458]: the DC50 is > 1000 nM. For `CC1(N)CCN(c2cnc(Sc3cccc(NC(=O)c4ccc(N5CCC(N6CCN(c7ccc(C(=O)NCc8ccc9c(c8)CN(C8CCC(=O)NC8=O)C9=O)nn7)CC6)CC5)nc4)c3)cn2)CC1` (stereo not drawn) [Compound 437], the half-maximal degradation concentration (DC50) is < 100 nM. On to `CC1(N)CCN(c2cnc(Sc3cccc(NC(=O)c4ccc(N5CCC(N6CC=C(C7CCC(C(=O)NCc8ccc9c(c8)CN(C8CCC(=O)NC8=O)C9=O)CC7)CC6)CC5)c(F)c4)c3)cn2)CC1` (stereo not drawn) [Compound 511], for which the DC50 was < 100 nM.

For `CC1(N)CCN(c2cnc(Sc3cccc(NC(=O)c4ccc(N5CCC(N6CC=C(c7cnc(C(=O)NCc8ccc9c(c8)CN(C8CCC(=O)NC8=O)C9=O)c(Cl)c7)CC6)CC5)nc4)c3)cn2)CC1` (stereo not drawn) [Compound 431], the DC50 is 100 to 1000 nM. Regarding `CC1(N)CCN(c2cnc(Sc3cccc(NC(=O)c4ccc(C5=CCC(N6CC=C(c7ccc(C(=O)NCc8ccc9c(c8)CN(C8CCC(=O)NC8=O)C9=O)nc7)CC6)CC5)cc4)c3)cn2)CC1` (stereo not drawn) [Compound 307], the DC50 is < 100 nM.

As for `CC1(N)CCN(c2cnc(Sc3cccc(NC(=O)C4CCC(N5CCN(c6ccc7c(c6)C(=O)N(C6CCC(=O)NC6=O)C7=O)CC5)CC4)c3)cn2)CC1` (stereo not drawn) [Compound 270], the DC50 is > 1000 nM. With `CC1(N)CCN(c2cnc(Sc3cccc(NC(=O)c4ccc(N5CCC(N6CCC(c7ccc(C(=O)NCc8ccc9c(c8)CN(C8CCC(=O)NC8=O)C9=O)cc7)C(F)C6)CC5)c(F)c4)c3)cn2)CC1` (stereo not drawn) [Compound 506], the DC50 was < 100 nM. Take `CC1(N)CCN(c2cnc(Sc3cccc(NC(=O)c4ccc(N5CCC(N6C=C(c7ncc(C(=O)NCc8ccc9c(c8)CN(C8CCC(=O)NC8=O)C9=O)o7)CC6)CC5)c(F)c4)c3)cn2)CC1` (stereo not drawn) [Compound 426]: the half-maximal degradation concentration (DC50) was > 1000 nM.

As for `CC1(N)CCN(c2cnc(Sc3cccc(NC(=O)C4CC45CCC(N4CC=C(c6ccc(C(=O)NCc7ccc8c(c7)CN(C7CCC(=O)NC7=O)C8=O)nc6)CC4)CC5)c3)cn2)CC1` (single isomer, unassigned) [Compound 314], the DC50 is > 1000 nM. To `C[C@@H]1OCC2(CCN(c3cnc(Sc4cccc(NCc5ccc(CN6CCN(c7ccc(C(=O)NCc8ccc9c(c8)CN(C8CCC(=O)NC8=O)C9=O)nn7)CC6)cc5)c4)cn3)CC2)[C@@H]1N` (stereo partly drawn) [Compound 253] belongs > 1000 nM; to `CC1(N)CCN(c2cnc(Sc3cccc(NC(=O)c4ccc(N5CCC(N6CCN(c7ccc(C(=O)NCc8ccc9c(c8)CN(C8CCC(=O)NC8=O)C9=O)c(F)c7)CC6)CC5)c(F)c4)c3)cn2)CC1` (stereo not drawn) [Compound 503], < 100 nM; to `CC1(N)CCN(c2cnc(Sc3cccc(NC(=O)c4ccc(N5CCC(C(=O)NCc6ccc7c(c6)CN(C6CCC(=O)NC6=O)C7=O)CC5)c(F)c4)c3)cn2)CC1` (stereo not drawn) [Compound 306], > 1000 nM. `C[C@@H]1OCC2(CCN(c3cnc(Sc4cccc(NC(=O)c5ccc(N6CCC(N7CC=C(c8ncc(C(=O)NCc9ccc%10c(c9)CN(C9CCC(=O)NC9=O)C%10=O)cc8F)CC7)CC6)c(F)c5)c4)cn3)CC2)[C@@H]1N` (stereo partly drawn) [Compound 466]: the DC50 is < 100 nM. To `C[C@@H]1OCC2(CCN(c3cnc(Sc4cccc(NC(=O)c5ccc(CN6CCN(c7ccc8c(c7)C(=O)N(C7CCC(=O)NC7=O)C8=O)CC6)cc5)c4)cn3)CC2)[C@@H]1N` (stereo partly drawn) [Compound 287] belongs > 1000 nM; to `COCC1(N)CCN(c2cnc(Sc3cccc(NC(=O)c4ccc(N5CCC(N6CC=C(c7ccc(C(=O)NCc8ccc9c(c8)CN(C8CCC(=O)NC8=O)C9=O)nc7)CC6)CC5)cc4)c3)cn2)CC1` (stereo not drawn) [Compound 434], < 100 nM.

As a reminder, the DC50 is the concentration at which degradation of the target reaches its halfway point.
